Reference: ChEMBL document CHEMBL5728527, “Naphthyridines as inhibitors of HPK1” (2021)
Where “and” joins values, the source holds several entries; their conditions need not be identical. Identical values can stand only once.

target: Mitogen-activated protein kinase kinase kinase kinase 1 (Homo sapiens, UniProt Q92918); assay: Binding Assay: Lanth: For the binding assay, 4 ul 2×HPK1 and Eu-anti-GST antibody were added to each well of the assay plate using a Multidrop reagent dispenser. The solutions were incubated in a 23 C incubator for 1 h. To each well of the assay plate was added 4 ul 2× Tracer-222 using a Multidrop reagent dispenser. The solutions were again incubated in a 23 C incubator for 1 h. The results of the assay were read using an Envision plate reader with the following parameters: TR_FRET, 340ex/615 and 665em; 100 usec Delay; and 200 usec integration.
Sequence (Q92918 whole entry): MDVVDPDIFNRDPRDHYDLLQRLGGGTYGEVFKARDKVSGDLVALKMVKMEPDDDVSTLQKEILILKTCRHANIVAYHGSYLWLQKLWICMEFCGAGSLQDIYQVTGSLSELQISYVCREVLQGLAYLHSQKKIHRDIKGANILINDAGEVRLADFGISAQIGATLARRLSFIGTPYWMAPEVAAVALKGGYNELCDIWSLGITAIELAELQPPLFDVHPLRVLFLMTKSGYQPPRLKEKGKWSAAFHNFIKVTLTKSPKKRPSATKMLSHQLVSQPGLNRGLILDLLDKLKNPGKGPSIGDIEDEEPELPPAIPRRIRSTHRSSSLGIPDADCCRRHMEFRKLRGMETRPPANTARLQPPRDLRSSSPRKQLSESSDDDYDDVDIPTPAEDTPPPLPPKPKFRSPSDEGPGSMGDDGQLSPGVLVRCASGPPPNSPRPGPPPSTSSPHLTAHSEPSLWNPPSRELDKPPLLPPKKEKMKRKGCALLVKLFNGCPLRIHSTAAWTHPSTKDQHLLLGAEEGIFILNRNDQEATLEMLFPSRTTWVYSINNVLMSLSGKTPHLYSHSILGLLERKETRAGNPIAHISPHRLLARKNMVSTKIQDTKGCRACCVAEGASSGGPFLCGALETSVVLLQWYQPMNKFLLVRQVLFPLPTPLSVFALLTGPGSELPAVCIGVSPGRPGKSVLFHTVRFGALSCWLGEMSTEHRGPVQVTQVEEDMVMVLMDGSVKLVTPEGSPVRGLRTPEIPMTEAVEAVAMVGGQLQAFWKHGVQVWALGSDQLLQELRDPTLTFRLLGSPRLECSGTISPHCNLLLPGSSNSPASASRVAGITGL

| Structure (SMILES) | Ki |
| --- | --- |
| CCc1ccncc1-c1cc2cc(NC(=O)[C@@H]3C[C@@H]3C#N)ncc2c(N)n1 | 10.6 nM and 3.21 nM |
| Cc1c(-c2cc3cc(NC(=O)[C@H]4C[C@@H]4C#N)ncc3c(N)n2)cncc1C(F)F (racemic) | 39 nM |
| CC(=O)OC[C@]1(C)C[C@@H]1C(=O)Nc1cc2cc(-c3cnccc3C)nc(N)c2cn1 (racemic) | 14.6 nM |
| Cc1cnc(CO)cc1-c1cc2cc(NC(=O)[C@@H]3C[C@@H]3F)ncc2c(N)n1 (racemic) | 18.3 nM |
| Cc1cc(C)c(-c2cc3cc(NC(=O)[C@@H]4C[C@H]4C#N)ncc3c(N)n2)cc1C(N)=O (racemic) | 89 nM |
| Cc1cnc(C#N)cc1-c1cc2cc(NC(=O)[C@@H]3C[C@@H]3F)ncc2c(N)n1 (racemic) | 22.5 nM |
| Cc1ccncc1-c1nc(N)c2cnc(NC(=O)[C@H]3C[C@@H]3C#N)cc2c1F (racemic) | 4.4 nM |
| Cc1nn(C)c(C)c1-c1cc2cc(NC(=O)[C@H]3C[C@@H]3C(F)(F)F)ncc2c(N)n1 (racemic) | 12 nM |
| CCC1CCCN1c1cc2cc(NC(=O)[C@@H]3C[C@@H]3F)ncc2c(N)n1 (mixture of isomers) | 11.7 nM and 10.3 nM |
| CCc1cc(OC)ncc1-c1cc2cc(NC(=O)[C@@H]3C[C@@H]3F)ncc2c(N)n1 (racemic) | 4.88 nM |
| Cc1ccncc1-c1cc2cc(NC(=O)[C@H]3[C@H](C)[C@@H]3CC#N)ncc2c(N)n1 | 6.01 nM |
| CCc1cc(N)ncc1-c1cc2cc(NC(=O)[C@@H]3C[C@@H]3F)ncc2c(N)n1 (racemic) | 5.76 nM |
| Cc1ccncc1-c1cc2cc(NC(=O)[C@H]3C[C@@H]3c3ncccn3)ncc2c(N)n1 (racemic) | 10 nM |
| Cc1[nH]ncc1-c1cc2cc(NC(=O)[C@@H]3C[C@H]3C(F)(F)F)ncc2c(N)n1 (racemic) | 16 nM |
| CCc1cc(=O)n(C)cc1-c1cc2cc(NC(=O)[C@@H]3C[C@@H]3F)ncc2c(N)n1 (racemic) | 440 nM |
| Cc1cc(C(=O)NCC(F)(F)F)ccc1-c1cc2cc(NC(=O)[C@@H]3C[C@H]3C#N)ncc2c(N)n1 (relative stereo) | 8.1 nM |
| CCc1ccncc1-c1cc2cc(NC(=O)[C@H]3C[C@@H]3C#N)ncc2c(N)n1 | 1.31 nM and 0.583 nM |
| Cc1ncc(-c2cc3cc(NC(=O)[C@@H]4C[C@H]4C#N)ncc3c(N)n2)n1C (relative stereo) | 18.9 nM |
| Cc1cc(C(C)(C)O)ncc1-c1cc2cc(NC(=O)[C@@H]3C[C@@H]3F)ncc2c(N)n1 (racemic) | 41.7 nM |

| Structure (SMILES) | Ki |
| --- | --- |
| CC(O)Cc1ccncc1-c1cc2cc(NC(=O)[C@H]3C[C@@H]3C#N)ncc2c(N)n1 (mixture of isomers) | 7.28 nM |
| CCc1ccncc1-c1cc2cc(NC(=O)[C@@H]3C[C@H]3C#N)ncc2c(N)n1 (single isomer, unassigned) | 7.36 nM |
| Cc1ccncc1-c1cc2cc(NC(=O)[C@H]3[C@@H]4COC[C@@H]43)ncc2c(N)n1 (single isomer, unassigned) | 4.9 nM |
| Cc1ccncc1-c1cc2cc(NC(=O)C(C)C)ncc2c(N)n1 | 29.8 nM |
| Cn1cc([C@H]2C[C@@H]2C(=O)Nc2cc3cc(-c4cnc(N)c(C(F)(F)F)c4)nc(N)c3cn2)cn1 (racemic) | 11.8 nM |
| Cc1ccnc(C)c1-c1cc2cc(NC(=O)[C@@H]3C[C@@H]3F)ncc2c(N)n1 (racemic) | 5.03 nM |
| Cc1c[nH]c(=O)cc1-c1cc2cc(NC(=O)[C@@H]3C[C@@H]3F)ncc2c(N)n1 (racemic) | 6.5 nM |
| N#C[C@@H]1C[C@H]1C(=O)Nc1cc2cc(-c3cnccc3C(F)(F)F)nc(N)c2cn1 (racemic) | 6.49 nM |
| Cc1ccncc1-c1cc2cc(NC(=O)[C@@H]3C[C@]34CCNC4)ncc2c(N)n1 (racemic) | 6.8 nM |
| COCCc1ccncc1-c1cc2cc(NC(=O)[C@H]3C[C@@H]3C#N)ncc2c(N)n1 (racemic) | 21.2 nM |
| Cc1ccncc1-c1cc2cc(NCC3CC3(F)F)ncc2c(N)n1 (racemic) | 61.3 nM |
| CCC1CCCN1c1cc2cc(NC(=O)[C@H]3C[C@H]3F)ncc2c(N)n1 (mixture of isomers) | 172 nM |
| Cc1cc2[nH]cnc2cc1-c1cc2cc(NC(=O)[C@@H]3C[C@@H]3F)ncc2c(N)n1 (racemic) | 7.9 nM |
| Cc1cc(C(=O)N(C)C)ncc1-c1cc2cc(NC(=O)[C@H]3C[C@@H]3c3cnn(C)c3)ncc2c(N)n1 (racemic) | 6.14 nM |
| Cn1ccc2cncc(-c3cc4cc(NC(=O)[C@@H]5C[C@@H]5F)ncc4c(N)n3)c21 (racemic) | 101 nM |
| CC(=O)OC[C@@]1(C)C[C@@H]1C(=O)Nc1cc2cc(-c3cnccc3C)nc(N)c2cn1 (racemic) | 17.1 nM |
| CCc1ccncc1-c1cc2cc(NC(=O)[C@@H]3C[C@H]3C(=O)C3CC(O)C3)ncc2c(N)n1 (mixture of isomers) | 163 nM |
| CCc1ccncc1-c1cc2cc(NC(=O)[C@@H]3C[C@@H]3C(N)=O)ncc2c(N)n1 (racemic) | 25.8 nM |

Further lines, results first:

| Ki | Structure (SMILES) |
| --- | --- |
| 0.501 nM | N#CC[C@H]1C[C@@H]1C(=O)Nc1cc2cc(-c3cnccc3CCO)nc(N)c2cn1 (racemic) |
| 0.188 nM | Cc1ccncc1-c1cc2cc(NC(=O)[C@@H]3[C@H](C)[C@H]3CC#N)ncc2c(N)n1 |
| 1.4 nM | Cc1ccncc1-c1cc2cc(NC(=O)[C@@H]3C[C@H]3C(F)(F)F)ncc2c(N)n1 (racemic) |
| 3.3 nM | Cc1cc(-n2cccn2)ncc1-c1cc2cc(NC(=O)[C@H]3C[C@@H]3c3cnn(C)c3)ncc2c(N)n1 |
| 4.06 nM | Cc1ccncc1-c1cc2cc(NC(=O)[C@@H]3C[C@H]3C#N)ncc2c(N)n1 (single isomer, unassigned) |
| 0.225 nM | C=Cc1c(-c2cnccc2C)nc(N)c2cnc(NC(=O)[C@H]3C[C@@H]3CC#N)cc12 (racemic) |
| 0.19 nM | Cc1ccncc1-c1nc(N)c2cnc(NC(=O)[C@@H]3C[C@H]3c3cn[nH]c3)cc2c1F (racemic) |
| 0.38 nM | Cc1ccncc1-c1cc2cc(NC(=O)[C@@H]3C[C@@H]3F)ncc2c(N)n1 (racemic) |
| 0.135 nM | Nc1nc(-c2cncc3c2OCCN3)cc2cc(NC(=O)[C@@H]3C[C@@H]3F)ncc12 (racemic) |
| 0.051 nM | Cc1ccnc(-c2ccccc2)c1-c1cc2cc(NC(=O)[C@H]3C[C@@H]3CC#N)ncc2c(N)n1 (racemic) |
| 0.972 nM | Cc1ccncc1-c1cc2cc(NC(=O)[C@H]3[C@@H]4CC(N5CCOCC5)C[C@@H]43)ncc2c(N)n1 (some centres not stated) |
| 2.26 nM | Cc1cc(-c2ccn(C)n2)ncc1-c1cc2cc(NC(=O)[C@H]3C[C@@H]3c3cnn(C)c3)ncc2c(N)n1 |
| 2.3 nM | Cc1ccncc1-c1cc2cc(NC(=O)[C@@H]3C[C@@H]3C)ncc2c(N)n1 (racemic) |
| 1.17 nM | Cc1cc(C(=O)OCc2ccccc2)ncc1-c1cc2cc(NC(=O)[C@H]3C[C@@H]3c3cnn(C)c3)ncc2c(N)n1 (racemic) |
| 0.154 nM | Nc1nc(-c2cncc3c2CCN3)cc2cc(NC(=O)[C@@H]3C[C@@H]3F)ncc12 (racemic) |
| 1.1 nM | Cc1ccncc1-c1cc2cc(NC(=O)[C@H]3C[C@@H]3CO)ncc2c(N)n1 (racemic) |
| 0.509 nM | COC(=O)c1cc(C)c(-c2cc3cc(NC(=O)[C@H]4C[C@@H]4c4cnn(C)c4)ncc3c(N)n2)cn1 |
| 1.42 nM | Cc1ccncc1-c1cc2cc(NC(=O)C3C[C@@H]3C(F)(F)F)ncc2c(N)n1 (some centres not stated) |
| 2.14 nM | COC1CN([C@H]2C[C@@H]3[C@H](C2)[C@H]3C(=O)Nc2cc3cc(-c4cnccc4C)nc(N)c3cn2)C1 |
| 1.85 nM | C[C@@H]1C[C@H]1C(=O)Nc1cc2cc(-c3cnn(C)c3)nc(N)c2cn1 (racemic) |

| Ki | Structure (SMILES) |
| --- | --- |
| 0.567 nM | Cc1ccncc1-c1cc2cc(Nc3cnn([C@H]4CN(C5COC5)CC[C@@H]4O)c3)ncc2c(N)n1 (racemic) |
| 0.58 nM | Cc1ccncc1-c1cc2cc(NC(=O)[C@@H]3C[C@H]3c3cc[nH]n3)ncc2c(N)n1 (racemic) |
| 0.23 nM | Cc1ccncc1-c1cc2cc(NC(=O)[C@@H]3C[C@H]3c3cnn(C)c3)ncc2c(N)n1 (racemic) |
| 0.047 nM | Cc1ccncc1-c1nc(N)c2cnc(NC(=O)[C@@H]3C[C@H]3c3cn[nH]c3)cc2c1Cl (racemic) |
| 1.1 nM | Cc1c(N)cncc1-c1cc2cc(NC(=O)[C@H]3C[C@@H]3C(F)(F)F)ncc2c(N)n1 (racemic) |
| 3.64 nM | CCc1ccncc1-c1cc2cc(NC(=O)[C@H]3C[C@H]3C#N)ncc2c(N)n1 (single isomer, unassigned) |
| 2.81 nM | Cc1cc2c(cc1-c1cc3cc(NC(=O)[C@@H]4C[C@@H]4F)ncc3c(N)n1)CC(=O)N2 (racemic) |
| 0.113 nM | Cc1ccc(F)cc1-c1cc2cc(NC(=O)[C@H]3C[C@@H]3c3cnn(C)c3)ncc2c(N)n1 (racemic) |
| 0.98 nM | CCOc1ccncc1-c1cc2cc(NC(=O)[C@H]3C[C@@H]3C#N)ncc2c(N)n1 (racemic) |
| 3.2 nM | Cc1ncc(N)c(C)c1-c1cc2cc(NC(=O)[C@@H]3C[C@H]3C)ncc2c(N)n1 (racemic) |
| 1.73 nM | Cc1cc(N2CCC2=O)ncc1-c1cc2cc(NC(=O)[C@H]3C[C@@H]3c3cnn(C)c3)ncc2c(N)n1 |
| 1.77 nM | Nc1nc(-c2cncc3c2OCC(=O)N3)cc2cc(NC(=O)[C@@H]3C[C@@H]3F)ncc12 (racemic) |
| 0.837 nM | Cc1ccncc1-c1cc2cc(NC(=O)[C@@H]3[C@@H](C)[C@H]3CC#N)ncc2c(N)n1 |
| 0.15 nM | Cc1ccncc1-c1cc2cc(NC(=O)[C@@H]3C[C@H]3c3cnsc3)ncc2c(N)n1 (racemic) |
| 0.763 nM | Cc1ccncc1-c1cc2cc(NC(=O)[C@H]3[C@@H](C)[C@@H]3CC#N)ncc2c(N)n1 |
| 2.8 nM | Cc1ccncc1-c1cc2cc(NC(=O)[C@@H]3C[C@H]3F)ncc2c(N)n1 (single isomer, unassigned) |
| 0.57 nM | Cc1ccncc1-c1cc2cc(NC(=O)[C@H]3C[C@@H]3CC#N)ncc2c(N)n1 (racemic) |
| 1.35 nM | Cc1ccncc1-c1cc2cc(NC(=O)C3CC34CC4)ncc2c(N)n1 (racemic) |
| 2.4 nM | Cc1ccncc1-c1cc2cc(NC(=O)[C@@H]3C[C@H]3CN)ncc2c(N)n1 (racemic) |
| 3.14 nM | Cn1cc([C@H]2C[C@@H]2C(=O)Nc2cc3cc(-c4cnc5c(=O)n(C)ncc5c4)nc(N)c3cn2)cn1 (racemic) |
